Read-outs that look alike come from different tables or passages of the source.
What was measured:
[1] = target: T1, kinase enzymes (Homo sapiens, UniProt P42336); experiment: Enzyme binding assay (KINOMEscan, DiscoveRx), further kinases of Table A; settings: PIK3Cα_h
T1 construct: purchased DiscoveRx Corporation, San Diego (contract service, KINOMEscan)
Outline: (§1)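 KINOMEscan readout; values are kinase binding affinities.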

[2] = target: T2, kinase enzymes (Homo sapiens, UniProt P48736); experiment: as above; settings: PIK3Cγ_h
T2 construct: purchased DiscoveRx Corporation, San Diego (contract service, KINOMEscan)
Outline: as §1

[3] = target: T3, kinase enzymes (Homo sapiens, UniProt P42345); experiment: as above; settings: MTOR_h
T3 construct: purchased DiscoveRx Corporation, San Diego (contract service, KINOMEscan)
Outline: as §1

[4] = system: Akt phosphorylated at Thr308 in PC-3 cells; experiment: Cellular assay: phosphorylation of Akt at Thr308 in PC-3 cells (MSD ELISA); type: cell-based; settings: PC-3 cells, 60 min compound incubation, MSD ELISA, read-out: IC50 pAkt_Thr308
Outline: (§2)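 Phospho-Akt in whole-cell lysates is quantified by electrochemiluminescent immunoassay using phospho-site capture and total-Akt detection antibodies.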

[5] = target: T4, PI3Kβ (Homo sapiens, UniProt P42338); experiment: Enzyme binding assay (KINOMEscan, DiscoveRx); settings: PIK3Cβ_h, read-out: Kd PIK3Cβ_h
T4 construct: purchased DiscoveRx Corporation, San Diego (contract service, KINOMEscan)
Outline: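 KINOMEscan binding platform; read-out is the inhibitor binding constant Kd (nM).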

[6] = system: Akt phosphorylated at Ser473 in PC-3 cells; experiment: Cellular assay: phosphorylation of Akt at Ser473 in PC-3 cells (MSD ELISA); type: cell-based; settings: PC-3 cells, 60 min compound incubation, MSD ELISA, read-out: IC50 pAkt_S473
Outline: as §2

[7] = target: T5, PI3Kδ (Homo sapiens, UniProt O00329); experiment: Enzyme binding assay (KINOMEscan, DiscoveRx); settings: PIK3Cδ_h
T5 construct: purchased DiscoveRx Corporation, San Diego (contract service, KINOMEscan)
T5 sequence (O00329 1-1044): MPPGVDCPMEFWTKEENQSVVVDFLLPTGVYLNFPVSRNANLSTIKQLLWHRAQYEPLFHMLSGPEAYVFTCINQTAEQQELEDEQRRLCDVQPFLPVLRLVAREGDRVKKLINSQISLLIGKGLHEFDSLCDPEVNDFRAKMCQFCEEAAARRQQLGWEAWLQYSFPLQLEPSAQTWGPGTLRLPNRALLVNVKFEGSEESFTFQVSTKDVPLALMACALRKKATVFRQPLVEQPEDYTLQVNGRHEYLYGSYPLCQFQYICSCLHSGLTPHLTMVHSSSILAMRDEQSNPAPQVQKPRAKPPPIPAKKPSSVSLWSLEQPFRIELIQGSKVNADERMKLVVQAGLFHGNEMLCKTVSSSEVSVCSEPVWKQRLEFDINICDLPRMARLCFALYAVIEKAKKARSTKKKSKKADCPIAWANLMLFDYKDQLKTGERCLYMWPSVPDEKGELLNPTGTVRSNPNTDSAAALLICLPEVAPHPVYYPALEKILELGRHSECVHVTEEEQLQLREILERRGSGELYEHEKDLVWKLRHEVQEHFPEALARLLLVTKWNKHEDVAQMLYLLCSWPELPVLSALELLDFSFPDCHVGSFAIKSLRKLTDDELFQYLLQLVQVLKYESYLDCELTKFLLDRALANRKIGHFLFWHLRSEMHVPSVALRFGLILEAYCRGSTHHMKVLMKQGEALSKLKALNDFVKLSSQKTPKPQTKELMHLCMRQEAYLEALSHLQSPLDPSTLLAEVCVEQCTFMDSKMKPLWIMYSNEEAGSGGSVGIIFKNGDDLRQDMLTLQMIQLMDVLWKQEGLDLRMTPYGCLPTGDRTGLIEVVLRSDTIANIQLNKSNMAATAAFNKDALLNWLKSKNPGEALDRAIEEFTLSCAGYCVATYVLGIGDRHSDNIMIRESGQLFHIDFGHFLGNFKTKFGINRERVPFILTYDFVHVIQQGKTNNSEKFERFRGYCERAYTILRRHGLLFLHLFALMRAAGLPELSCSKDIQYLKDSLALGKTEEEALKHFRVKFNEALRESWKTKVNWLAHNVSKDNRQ
Outline: as §1

T4 sequence (P42338 whole entry): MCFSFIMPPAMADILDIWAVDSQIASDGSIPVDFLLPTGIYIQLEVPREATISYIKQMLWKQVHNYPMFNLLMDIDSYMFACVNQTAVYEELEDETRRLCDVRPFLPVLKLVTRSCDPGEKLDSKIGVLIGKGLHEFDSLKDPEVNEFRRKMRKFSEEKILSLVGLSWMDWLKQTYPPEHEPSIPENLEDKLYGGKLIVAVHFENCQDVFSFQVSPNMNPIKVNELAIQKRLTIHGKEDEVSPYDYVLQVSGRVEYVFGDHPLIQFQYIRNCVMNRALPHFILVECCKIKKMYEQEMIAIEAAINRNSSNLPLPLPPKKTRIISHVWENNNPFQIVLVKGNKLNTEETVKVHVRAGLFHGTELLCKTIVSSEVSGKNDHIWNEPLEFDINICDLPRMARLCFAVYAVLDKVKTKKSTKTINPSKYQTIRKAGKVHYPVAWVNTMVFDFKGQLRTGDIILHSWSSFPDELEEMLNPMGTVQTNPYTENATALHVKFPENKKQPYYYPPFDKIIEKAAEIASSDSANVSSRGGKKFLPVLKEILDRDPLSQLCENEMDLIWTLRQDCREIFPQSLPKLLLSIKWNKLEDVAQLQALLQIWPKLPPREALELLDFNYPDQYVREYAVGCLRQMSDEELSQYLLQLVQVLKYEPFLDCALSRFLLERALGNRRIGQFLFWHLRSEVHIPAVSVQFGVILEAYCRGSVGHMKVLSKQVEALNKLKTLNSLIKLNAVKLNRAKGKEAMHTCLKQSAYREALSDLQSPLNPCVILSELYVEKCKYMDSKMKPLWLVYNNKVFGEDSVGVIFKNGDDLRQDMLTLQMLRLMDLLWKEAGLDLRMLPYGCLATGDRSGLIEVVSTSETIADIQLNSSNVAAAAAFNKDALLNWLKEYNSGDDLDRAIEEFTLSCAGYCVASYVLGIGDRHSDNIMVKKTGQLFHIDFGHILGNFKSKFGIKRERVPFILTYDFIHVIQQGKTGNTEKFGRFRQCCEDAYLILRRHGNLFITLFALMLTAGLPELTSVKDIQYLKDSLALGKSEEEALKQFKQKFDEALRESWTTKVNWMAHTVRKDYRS
T2 sequence (P48736 whole entry): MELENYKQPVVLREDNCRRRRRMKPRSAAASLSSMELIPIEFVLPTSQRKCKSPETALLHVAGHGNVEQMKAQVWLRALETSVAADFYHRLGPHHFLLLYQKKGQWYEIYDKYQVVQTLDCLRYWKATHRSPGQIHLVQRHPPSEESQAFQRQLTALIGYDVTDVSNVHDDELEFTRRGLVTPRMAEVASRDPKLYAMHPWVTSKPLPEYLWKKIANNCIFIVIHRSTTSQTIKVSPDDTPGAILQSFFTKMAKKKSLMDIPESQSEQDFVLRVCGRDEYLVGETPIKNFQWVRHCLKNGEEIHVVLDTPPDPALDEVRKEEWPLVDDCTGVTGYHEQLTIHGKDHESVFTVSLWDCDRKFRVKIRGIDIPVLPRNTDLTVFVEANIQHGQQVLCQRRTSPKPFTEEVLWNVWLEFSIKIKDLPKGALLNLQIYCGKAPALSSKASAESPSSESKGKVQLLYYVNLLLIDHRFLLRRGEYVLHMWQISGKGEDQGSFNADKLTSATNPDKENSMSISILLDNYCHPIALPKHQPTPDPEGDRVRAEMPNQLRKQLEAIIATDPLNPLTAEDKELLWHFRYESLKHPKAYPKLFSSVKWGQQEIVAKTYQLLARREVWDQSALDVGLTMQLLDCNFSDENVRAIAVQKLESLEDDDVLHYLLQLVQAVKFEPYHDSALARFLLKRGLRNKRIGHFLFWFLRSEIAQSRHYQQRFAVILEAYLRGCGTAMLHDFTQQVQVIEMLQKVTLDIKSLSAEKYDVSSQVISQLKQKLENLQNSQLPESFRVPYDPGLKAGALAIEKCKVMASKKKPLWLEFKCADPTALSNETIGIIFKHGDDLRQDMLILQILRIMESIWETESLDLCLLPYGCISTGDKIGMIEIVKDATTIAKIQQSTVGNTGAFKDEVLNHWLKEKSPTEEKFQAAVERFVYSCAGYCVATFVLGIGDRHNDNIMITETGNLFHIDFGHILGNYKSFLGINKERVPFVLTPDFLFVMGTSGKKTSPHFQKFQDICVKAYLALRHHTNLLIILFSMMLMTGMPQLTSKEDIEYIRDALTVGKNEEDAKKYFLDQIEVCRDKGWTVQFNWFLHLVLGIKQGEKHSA
T1 sequence (P42336 whole entry): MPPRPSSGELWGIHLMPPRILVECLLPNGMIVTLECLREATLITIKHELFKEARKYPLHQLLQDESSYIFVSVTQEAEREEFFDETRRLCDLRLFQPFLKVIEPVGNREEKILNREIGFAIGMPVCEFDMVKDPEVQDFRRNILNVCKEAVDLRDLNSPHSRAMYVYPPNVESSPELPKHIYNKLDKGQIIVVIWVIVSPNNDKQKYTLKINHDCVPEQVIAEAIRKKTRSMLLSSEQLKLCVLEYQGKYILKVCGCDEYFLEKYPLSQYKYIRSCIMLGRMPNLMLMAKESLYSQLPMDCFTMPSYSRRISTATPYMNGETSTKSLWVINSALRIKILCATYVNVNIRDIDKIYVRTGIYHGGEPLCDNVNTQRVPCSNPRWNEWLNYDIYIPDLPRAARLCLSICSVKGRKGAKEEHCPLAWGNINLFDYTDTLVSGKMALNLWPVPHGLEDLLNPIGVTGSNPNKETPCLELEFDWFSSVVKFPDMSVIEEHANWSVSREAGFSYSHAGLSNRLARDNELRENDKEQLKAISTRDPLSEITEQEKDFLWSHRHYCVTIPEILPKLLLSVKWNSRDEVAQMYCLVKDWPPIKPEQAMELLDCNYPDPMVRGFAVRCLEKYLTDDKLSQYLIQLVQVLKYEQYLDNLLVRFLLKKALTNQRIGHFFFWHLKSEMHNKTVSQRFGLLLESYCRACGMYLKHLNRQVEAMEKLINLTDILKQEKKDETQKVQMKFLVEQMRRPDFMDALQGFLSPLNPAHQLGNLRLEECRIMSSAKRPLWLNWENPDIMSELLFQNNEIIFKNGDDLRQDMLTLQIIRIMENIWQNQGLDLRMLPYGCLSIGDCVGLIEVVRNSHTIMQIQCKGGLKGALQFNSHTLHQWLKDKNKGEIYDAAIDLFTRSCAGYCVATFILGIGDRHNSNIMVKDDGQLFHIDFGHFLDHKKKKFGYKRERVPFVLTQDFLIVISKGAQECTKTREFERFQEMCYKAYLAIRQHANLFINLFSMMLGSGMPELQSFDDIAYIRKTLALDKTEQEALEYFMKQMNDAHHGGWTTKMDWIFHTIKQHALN

| SMILES | Kd [1] [nM] | Kd [2] [nM] | Kd [3] [nM] | IC50 [4] [nM] | Kd [5] [nM] | IC50 [6] [nM] | melting point [°C] | Kd [7] [nM] | IC50 ([4]; Homo sapiens, PC-3, 1 h) [nM] | IC50 ([6]; Homo sapiens, PC-3, 1 h) [nM] |
| --- | --- | --- | --- | --- | --- | --- | --- | --- | --- | --- |
| CC(Nc1ccc(F)c(F)c1)c1cc(C(=O)N(C)C2CCNC2)cc2ncc(N3CCOCC3)nc12 (stereo not shown) [Compound 323b] | 3800 | 3090 | > 30200 | 100 | 1 | 209 | 130 | 182 | – | – |
| O=C(NCCO)c1cc(CNc2cc(F)cc(F)c2)c2nc(N3CCOCC3)cnc2c1 [Compound 333] | 5250 | 17400 | > 30200 | – | 37 | – | 265 | 7410 | 148 | > 513 |
| Cc1c(F)cccc1CNc1cc(C(=O)NCCO)cc2ncc(N3CCOCC3)nc12 [Compound 336] | 1950 | 9120 | 11000 | – | 4 | – | 194 | 871 | 46 | 85 |
| CNCCNC(=O)c1cc(NCc2cc(F)cc(F)c2)c2nc(N3CCOCC3)cnc2c1 [Compound 340] | 1510 | 5010 | 12000 | – | 2 | – | 180 | 372 | 50 | 76 |
| CC(Nc1ccc(F)c(F)c1)c1cc(C(=O)N2CCN3CCC[C@@H]3C2)cc2ncc(N3CCOCC3)nc12 (stereo partly shown) [Compound 347] | 3720 | 28800 | > 30200 | – | 4 | 219 | 170 | 407 | 63 | – |
| CC(Oc1ccc(F)c(F)c1)c1cc(C(=O)N(C)CCN(C)C)cc2ncc(N3CCOCC3)nc12 (stereo not shown) [Compound 353] | 5010 | > 30200 | > 30200 | – | 4 | – | 80 | 692 | 18 | 52 |
| CN(C(=O)c1cc(NCc2cc(F)cc(F)c2)c2nc(N3CCOCC3)cnc2c1)[C@@H]1CCNC1 [Compound 355] | 4790 | 20900 | 13200 | – | 13 | – | 80 | 2880 | 437 | > 513 |
| CC1CN(C(=O)c2cc(C(C)Nc3ccc(F)c(F)c3)c3nc(N4CCOCC4)cnc3c2)CC(C)N1 (stereo not shown) [Compound 357b] | 933 | 8130 | > 30200 | – | 1 | – | 120 | 158 | 14 | 30 |
| CN(C)C(=O)c1cc(N(C)Cc2cc(F)cc(F)c2)c2nc(N3CCOCC3)cnc2c1 [Compound 358] | 10000 | 17800 | > 30200 | – | 148 | – | 80 | 2240 | > 513 | > 513 |
| CC(C)NCCNC(=O)c1cc(C(C)Nc2ccc(F)c(F)c2)c2nc(N3CCOCC3)cnc2c1 (stereo not shown) [Compound 364] | 7410 | 13800 | > 30200 | – | 5 | – | 80 | 813 | 43 | 49 |
| CC(Nc1ccc(F)c(F)c1)c1cc(C(=O)NC[C@H]2CCCN2)cc2ncc(N3CCOCC3)nc12 (stereo partly shown) [Compound 376] | 4270 | 5130 | > 30200 | – | 1 | – | 130 | 295 | 85 | 105 |
| Cc1c(F)cccc1NCc1cc(C(=O)N(C)C)cc2ncc(N3CCOCC3)nc12 [Compound 382] | > 30200 | > 30200 | > 30200 | – | 17 | – | 150 | 5010 | 91 | 513 |
| Cc1c(F)cccc1CNc1cc(C(=O)NCCN(C)C)cc2ncc(N3CCOCC3)nc12 [Compound 383] | 1230 | 7940 | 7080 | – | 1 | – | 172 | 234 | 6 | 23 |
| CN(C)CCNC(=O)c1cc(CNc2cc(F)cc(F)c2)c2nc(N3CCOCC3)cnc2c1 [Compound 394] | 3240 | 12600 | 23400 | – | 0.2 | – | 161 | 776 | 18 | ~26.3 |
| CN(C)C(=O)c1cc(N2CCCC2c2cc(F)cc(F)c2)c2nc(N3CCOCC3)cnc2c1 (stereo not shown) [Compound 395] | 3470 | 14100 | 18200 | – | 33 | – | 80 | 2240 | > 513 | > 513 |
| CN(C)C(=O)c1cc(N2CCC2c2ccc(F)cc2)c2nc(N3CCOCC3)cnc2c1 (stereo not shown) [Compound 397] | 2690 | 22900 | > 30200 | – | 36 | – | 70 | 661 | > 513 | > 513 |
| Cc1c(CNc2cc(C(=O)N(C)C)cc3ncc(N4CCOCC4)nc23)cccc1C(F)(F)F [Compound 399] | 2820 | 9330 | > 30200 | – | 45 | – | 202 | 5250 | > 513 | > 513 |
| CN(C)C(=O)c1cc(NCc2ccc(F)cc2)c2nc(N3CCOCC3)cnc2c1 [Compound 400] | 2340 | 18600 | 26300 | – | 24 | – | 80 | 1590 | ~372 | 457 |
| C[C@H](Nc1cc(C(=O)N(C)C)cc2ncc(N3CCOCC3)nc12)c1ccc(F)cc1 [Compound 401] | 1860 | > 30200 | 11500 | – | 550 | – | 80 | 12300 | > 513 | > 513 |
| CC(Nc1cc(C(=O)N(C)C)cc2ncc(N3CCOCC3)nc12)c1cc(F)cc(F)c1 (stereo not shown) [Compound 402] | 4470 | > 30200 | > 30200 | – | 44 | – | 80 | 4070 | > 513 | > 513 |
